# Experimental data: patent US20250017914A1, “6-AZA-QUINOLINE DERIVATIVES AND RELATED USES” (Black Diamond Therapeutics, Inc., priority 2021, published 2025)
# Target: T1, BaF3 BRAF-KIAA1549 fusion cells (Homo sapiens, UniProt P15056)
# T1 construct: The BRAF-KIAA1549 fusion mutant was subcloned into pMXs-IRES-Blasticidin (RTV-016, Cell Biolabs, San Diego, CA); No tag given; Q9HCM3 (UPF0606 protein KIAA1549)
# Assay: BaF3 BRAF-KIAA1549 fusion cell proliferation assay (CellTiterGlo, 96 hours)
# Type: cell-based
# Description: Retroviral Production: The BRAF-KIAA1549 fusion mutant was subcloned into pMXs-IRES-Blasticidin (RTV-016, Cell Biolabs, San Diego, CA). Retrovirus was produced by transfection of HEK 293T cells with the retroviral BRAF mutant expression vector pMXs-IRES-Blasticidin (RTV-016, Cell Biolabs), pCMV-Gag-Pol vector and pCMV-VSV-G-Envelope vector. Briefly, HEK 293T cells were plated in Poly-D-lysine coated 6-well plate (2.5×10^5 cells per well) and incubated overnight. The next day, retroviral plasmids (1 μg of BRAF-KIAA fusion mutant, 0.32 μg of pCMV-Gag-Pol and 0.165 μg pCMV-VSV-G) were mixed in 300 μL of Optimem (31985, Life Technologies). The mixture was incubated at room temperature for 5 minutes and then added to Optimem containing transfection reagent Lipofectamine (11668, Invitrogen) and incubated for 20 minutes. The mixture was then added dropwise to HEK 293T cells. The next day the medium was replaced with fresh culture medium and retrovirus was harvested at 24 hours.
# Generation of BRAF-KIAA1549 fusion stable cell line: BaF3 cells were plated in V-bottom 96 well plate (COSTAR #3894) in 80 μL of RPMI/10% FBS and 0.01 ng/mL mouse IL-3, supplemented with 8 μg/mL polybrene (4×10^4 cells/well). Cells were transduced with 20 μL of BRAF-KIAA1549 fusion viral supernatant by centrifuging for 30 minutes at 1000 rpm. Cells were placed in a 37° C. incubator overnight. Next day 100 μL of RPMI/10% FBS and 0.01 ng/mL mouse IL-3 was added. After 24 hours, 100 μL of cells were transferred to a 24 well plate containing 900 μL of RPM/10% FBS and 15 μg/mL Blasticidin. Contents of the 24 well plate were sampled for cell viability via CellTiterGlo (Promega) over a 2-week period.
# Assay for cell proliferation: BaF3 BRAF-KIAA1549 fusion cells were resuspended at 1.5×10^5 c/mL in RPMI containing 10% Heat Inactivated FBS, 1% L-glutamine and dispensed in duplicate (7×10^4 c/well) into 384 well plates. To determine the effect of compound on cell proliferation, BaF3 BRAF-KIAA1549 fusion cells were incubated for 96 hours in the presence of vehicle control (DMSO) or compound at varying concentrations. Inhibition of cell growth was determined by luminescent quantification (Envision by Perkin Elmer) of intracellular ATP content using CellTiterGlo (Promega), according to the protocol provided by the manufacturer. To determine the IC50 values, the vehicle-treated cells were normalized as viable cells and analyzed using the CDD Vault, Collaborative Drug Discovery, Burlingame, CA (the Levenberg-Marquardt algorithm; Levenberg, K., […]; Marquardt, D., 1963).
# Tables A1 and A2 assign each compound a code for potency in the BaF3 BRAF-KIAA1549 fusion cell proliferation assay: A, B, C, or D. According to the code, A represents an IC50 value <20 nM; B represents an IC50 value ≥20 nM and <100 nM; C represents an IC50 value ≥100 nM and <500 nM; and D represents an IC50 value ≥500 nM.
# T1 sequence (P15056 whole entry, change not shown, the tested form may be a part): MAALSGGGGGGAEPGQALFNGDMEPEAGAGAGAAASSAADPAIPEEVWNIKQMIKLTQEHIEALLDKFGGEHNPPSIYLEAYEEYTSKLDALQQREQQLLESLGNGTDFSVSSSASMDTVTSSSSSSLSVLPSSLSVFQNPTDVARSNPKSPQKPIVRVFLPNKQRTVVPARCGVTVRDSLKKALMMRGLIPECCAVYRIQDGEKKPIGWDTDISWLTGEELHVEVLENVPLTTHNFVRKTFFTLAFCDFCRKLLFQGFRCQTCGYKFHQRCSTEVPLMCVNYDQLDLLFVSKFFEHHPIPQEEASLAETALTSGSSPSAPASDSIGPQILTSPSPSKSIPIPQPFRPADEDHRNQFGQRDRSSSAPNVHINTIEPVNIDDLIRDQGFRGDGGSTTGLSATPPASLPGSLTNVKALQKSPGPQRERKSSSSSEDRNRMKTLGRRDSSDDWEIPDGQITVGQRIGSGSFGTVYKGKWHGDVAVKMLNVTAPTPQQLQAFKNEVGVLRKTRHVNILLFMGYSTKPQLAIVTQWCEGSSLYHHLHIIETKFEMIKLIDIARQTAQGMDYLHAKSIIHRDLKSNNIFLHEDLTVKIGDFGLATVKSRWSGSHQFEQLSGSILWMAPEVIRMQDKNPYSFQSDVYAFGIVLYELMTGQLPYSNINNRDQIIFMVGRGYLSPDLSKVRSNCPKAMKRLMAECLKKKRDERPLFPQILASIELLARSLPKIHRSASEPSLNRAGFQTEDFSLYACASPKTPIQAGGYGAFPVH
Structure (SMILES),GI50 (Table A2) [nM],GI50 (Table A1) [nM]
"CNc1cc2ncc(-c3cc(NC(=O)c4csc5c4CCC(C)C5)cnc3C)cc2cn1 (centres unmarked) [Compound 235, 6-methyl-N-(6-methyl-5-(7-(methylamino)-1,6-naphthyridin-3-yl)pyridin-3-yl)-4,5,6,7-tetrahydrobenzo[b]thiophene-3-carboxamide]",20 to 100,–
"CNc1cc2ncc(-c3cc(NC(=O)c4cccc(C(O)C(F)(F)F)n4)cnc3C)cc2cn1 (centres unmarked) [Compound 210, N-(6-methyl-5-(7-(methylamino)-1,6-naphthyridin-3-yl)pyridin-3-yl)-6-(2,2,2-trifluoro-1-hydroxyethyl)picolinamide]",≥ 500,–
"Cc1ccc(NC(=O)c2cc(C(C)(C)C#N)ccn2)cc1-c1ccc2c3c(ncc2c1)NC(=O)C3 [Compound 275, 4-(2-cyanopropan-2-yl)-N-(4-methyl-3-(2-oxo-2,3-dihydro-1H-pyrrolo[2,3-c]isoquinolin-7-yl)phenyl)picolinamide]",20 to 100,–
"CNc1cc2ncc(-c3cc(NC(=O)c4cc(C(F)(F)F)ccn4)ccc3C)cc2cn1 [Compound 1, N-(4-methyl-3-(7-(methylamino)-1,6-naphthyridin-3-yl)phenyl)-4-(trifluoromethyl)picolinamide]",–,< 20
"CNc1cc2ncc(-c3cc(NC(=O)c4cc(C(F)(F)F)c(F)cn4)cnc3C)cc2cn1 [Compound 60, 5-Fluoro-N-(6-methyl-5-(7-(methylamino)-1,6-naphthyridin-3-yl)pyridin-3-yl)-4-(trifluoromethyl)picolinamide]",–,< 20
"CNc1cc2ncc(-c3cc(NC(=O)c4ccnc(C(C)(F)F)c4)cnc3C)cc2cn1 [Compound 29, 2-(1,1-Difluoroethyl)-N-(6-methyl-5-(7-(methylamino)-1,6-naphthyridin-3-yl)pyridin-3-yl)isonicotinamide]",–,< 20
"CNc1cc2ncc(-c3cc(NC(=O)c4ccnc(C(C)(F)F)c4)ccc3C)cc2cn1 [Compound 9, 2-(1,1-difluoroethyl)-N-(4-methyl-3-(7-(methylamino)-1,6-naphthyridin-3-yl)phenyl)isonicotinamide]",–,< 20
"CNc1cc2ncc(-c3cc(NC(=O)c4cc(C(C)(F)F)ccn4)ccc3C)cc2cn1 [Compound 12, 4-(1,1-Difluoroethyl)-N-(4-methyl-3-(7-(methylamino)-1,6-naphthyridin-3-yl)phenyl)picolinamide]",–,20 to 100
"CNc1cc2ncc(-c3cc(NC(=O)c4ccnc(C(C)(C)C#N)c4)cnc3C)cc2cn1 [Compound 55, 2-(2-Cyanopropan-2-yl)-N-(6-methyl-5-(7-(methylamino)-1,6-naphthyridin-3-yl)pyridin-3-yl)isonicotinamide]",–,< 20
"CNc1cc2ncc(-c3cc(NC(=O)c4cc(C5(C#N)CC5)ccn4)cnc3C)cc2cn1 [Compound 32, 4-(1-Cyanocyclopropyl)-N-(6-methyl-5-(7-(methylamino)-1,6-naphthyridin-3-yl)pyridin-3-yl)picolinamide]",–,< 20
"CNc1cc2c(C#N)cc(-c3cc(NC(=O)c4ccnc(C(F)(F)F)c4)ccc3C)cc2cn1 [Compound 273, N-(3-(5-cyano-3-(methylamino)isoquinolin-7-yl)-4-methylphenyl)-2-(trifluoromethyl)isonicotinamide]",100 to 500,–
"CNc1cc2ncc(-c3cc(NC(=O)c4cc(C5(C#N)CC5)ccn4)ccc3C)cc2cn1 [Compound 16, 4-(1-Cyanocyclopropyl)-N-(4-methyl-3-(7-(methylamino)-1,6-naphthyridin-3-yl)phenyl)picolinamide]",–,< 20
"CNc1ncc2cc(-c3cc(NC(=O)c4ccnc(C(C)(C)C#N)c4)cnc3C)cnc2c1Cl [Compound 270, N-[5-[8-chloro-7-(methylamino)-1,6-naphthyridin-3-yl]-6-methyl-3-pyridyl]-2-(1-cyano-1-methyl-ethyl)pyridine-4-carboxamide]",≥ 500,–
"CNc1cc2ncc(-c3cc(NC(=O)C[C@H]4C[C@H](C(F)(F)F)CCO4)cnc3C)cc2cn1 (single isomer, unassigned) [Compound 36]",–,100 to 500
"CNc1cc2ncc(-c3cc(NC(=O)c4ccnc(C(C)C)c4)cnc3C)cc2cn1 [Compound 57, 2-Isopropyl-N-(6-methyl-5-(7-(methylamino)-1,6-naphthyridin-3-yl)pyridin-3-yl)isonicotinamide]",–,< 20
"CNc1cc2ncc(-c3cc(NC(=O)c4cnc5n4CCC(C)C5)ccc3C)cc2cn1 (centres unmarked) [Compound 195, 7-methyl-N-(4-methyl-3-(7-(methylamino)-1,6-naphthyridin-3-yl)phenyl)-5,6,7,8-tetrahydroimidazo[1,2-a]pyridine-3-carboxamide]",≥ 500,–
"CNc1cc2ncc(-c3cc(NC(=O)c4cc(C(C)(C)C#N)ccn4)cc(F)c3C)cc2cn1 [Compound 38, 4-(2-Cyanopropan-2-yl)-N-(3-fluoro-4-methyl-5-(7-(methylamino)-1,6-naphthyridin-3-yl)phenyl)picolinamide]",–,20 to 100
"CNc1cc2ncc(-c3cc(NC(=O)c4n[nH]c5c4CCCC5)cnc3C)cc2cn1 [Compound 229, N-(6-methyl-5-(7-(methylamino)-1,6-naphthyridin-3-yl)pyridin-3-yl)-4,5,6,7-tetrahydro-1H-indazole-3-carboxamide]",20 to 100,–
"CNc1cc2ncc(-c3cc(NC(=O)c4c[nH]c5ccccc45)cnc3C)cc2cn1 [Compound 194, N-(6-methyl-5-(7-(methylamino)-1,6-naphthyridin-3-yl)pyridin-3-yl)-1H-indole-3-carboxamide]",20 to 100,–
"CNc1cc2ncc(-c3cc(NC(=O)c4ccc(OC(F)F)cn4)cnc3C)cc2cn1 [Compound 72, 5-(Difluoromethoxy)-N-(6-methyl-5-(7-(methylamino)-1,6-naphthyridin-3-yl)pyridin-3-yl)picolinamide]",–,≥ 500
"Cc1ccc(NC(=O)c2ccnc(C(C)(C)F)c2)cc1-c1ccc2c3c(ncc2c1)NC(=O)C3 [Compound 276, 2-(2-fluoropropan-2-yl)-N-(4-methyl-3-(2-oxo-2,3-dihydro-1H-pyrrolo[2,3-c]isoquinolin-7-yl)phenyl)isonicotinamide]",< 20,–
"CNc1cc2ncc(-c3cc(NC(=O)N4CC[C@@H](CC(F)(F)F)C4)ccc3C)cc2cn1 (single isomer, unassigned) [Compound 267]",< 20,–
"CNc1cc2ncc(-c3cc(NC(=O)c4cc(C5(C#N)CCC5)ccn4)ccc3C)cc2cn1 [Compound 15, 4-(1-Cyanocyclobutyl)-N-(4-methyl-3-(7-(methylamino)-1,6-naphthyridin-3-yl)phenyl)picolinamide]",–,20 to 100
"CNc1cc2ncc(-c3cc(NC(=O)c4n[nH]c5c4C[C@H]4C[C@@H]54)cnc3C)cc2cn1 [Compound 253, (4aR,5aR)—N-(6-methyl-5-(7-(methylamino)-1,6-naphthyridin-3-yl)pyridin-3-yl)-4,4a,5,5a-tetrahydro-1H-cyclopropa[4,5]cyclopenta[1,2-c]pyrazole-3-carboxamide]",20 to 100,–
"CNc1cc2ncc(-c3cc(NC(=O)c4c[nH]c5ccc(C)cc45)ccc3C)cc2cn1 [Compound 263, 5-methyl-N-(4-methyl-3-(7-(methylamino)-1,6-naphthyridin-3-yl)phenyl)-1H-indole-3-carboxamide]",< 20,–
"CNc1cc2ncc(-c3cc(NC(=O)c4cc(C5(C#N)CCC5)ccn4)cnc3C)cc2cn1 [Compound 31, 4-(1-Cyanocyclobutyl)-N-(6-methyl-5-(7-(methylamino)-1,6-naphthyridin-3-yl)pyridin-3-yl)picolinamide]",–,20 to 100
